Here are results for 30 compounds from patent publication US10112937B2, “P2X7 modulators and methods of use” (Janssen Pharmaceutica NV, priority 2013, dated 2018).

Counter-ions that a name gives are not always drawn.

Chain of human P2X7 (Q99572 whole entry): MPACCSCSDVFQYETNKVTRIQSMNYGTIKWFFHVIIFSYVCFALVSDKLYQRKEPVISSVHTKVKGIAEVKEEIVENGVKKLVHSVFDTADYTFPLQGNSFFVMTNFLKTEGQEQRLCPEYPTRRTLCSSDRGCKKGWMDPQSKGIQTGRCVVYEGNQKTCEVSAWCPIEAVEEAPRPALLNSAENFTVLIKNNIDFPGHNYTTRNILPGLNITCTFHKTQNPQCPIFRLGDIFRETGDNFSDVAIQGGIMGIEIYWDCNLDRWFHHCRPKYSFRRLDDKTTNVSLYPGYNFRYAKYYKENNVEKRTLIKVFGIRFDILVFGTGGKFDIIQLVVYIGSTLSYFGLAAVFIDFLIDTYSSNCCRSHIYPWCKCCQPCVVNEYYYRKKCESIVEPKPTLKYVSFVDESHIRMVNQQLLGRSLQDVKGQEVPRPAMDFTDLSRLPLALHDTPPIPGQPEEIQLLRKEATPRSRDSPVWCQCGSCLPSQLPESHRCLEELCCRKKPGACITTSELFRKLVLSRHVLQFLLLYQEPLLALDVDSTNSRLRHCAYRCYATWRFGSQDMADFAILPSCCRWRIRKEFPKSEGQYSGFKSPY

One experiment has as its target human P2X7 (Homo sapiens (Human), UniProt Q99572). Nature of the experiment: P2X7 antagonism in human PBMCs (IL-1β release after LPS + Bz-ATP, ELISA). To be noted: human PBMCs, test compound 1 μM. Format: cell-based.
For `CC1c2ncn(-c3ccc(F)cc3)c2CCN1C(=O)c1cccc(C(F)(F)F)c1Cl` (stereo not shown) [Example 18, (2-Chloro-3-(trifluoromethyl)phenyl)(1-(4-fluorophenyl)-4-methyl-6,7-dihydro-1H-imidazo[4,5-c]pyridin-5(4H)-yl)methanone], the “PBMC 1 μM (% control)” value stood at 5.3 % control.

For `O=C(c1cccc(C(F)(F)F)c1Cl)N1CCc2c(ncn2-c2ccccc2)C1CO` (stereo not shown) [Example 30, (5-{[2-Chloro-3-(trifluoromethyl)phenyl]carbonyl}-1-phenyl-4,5,6,7-tetrahydro-1H-imidazo[4,5-c]pyridin-4-yl)methanol], the “PBMC 1 μM (% control)” value was 87.0 % control.

On to `O=C(c1cccc2c1OC(F)(F)O2)N1CCc2c(ncn2-c2ccccc2)C1` [Example 50, 5-[(2,2-Difluoro-1,3-benzodioxol-4-yl)carbonyl]-1-phenyl-4,5,6,7-tetrahydro-1H-imidazo[4,5-c]pyridine], for which the “PBMC 1 μM (% control)” value was 96.0 % control.

In the case of `O=C(c1cccc(C(F)(F)F)c1Cl)N1C=Cc2c(ncn2-c2cnccn2)C1` [Example 54, 5-{[2-Chloro-3-(trifluoromethyl)phenyl]carbonyl}-1-pyrazin-2-yl-4,5-dihydro-1H-imidazo[4,5-c]pyridine], the “PBMC 1 μM (% control)” value came out at 8.6 % control.

Regarding `O=C(c1cccc(Cl)c1Cl)N1CCc2c(nnn2-c2ccccc2)C1` [Example 62, 5-[(2,3-Dichlorophenyl)carbonyl]-1-phenyl-4,5,6,7-tetrahydro-1H-[1,2,3]triazolo[4,5-c]pyridine], the “PBMC 1 μM (% control)” value is listed as 5.2 % control.

For the compound `CC1c2nnn(-c3cnccn3)c2C=CN1C(=O)c1cccc(C(F)(F)F)c1Cl` (stereo not shown) [Example 72, 5-{[2-Chloro-3-(trifluoromethyl)phenyl]carbonyl}-4-methyl-1-pyrazin-2-yl-4,5-dihydro-1H-[1,2,3]triazolo[4,5-c]pyridine], the “PBMC 1 μM (% control)” value is recorded as −5.7 % control.

Take `CC1c2nnn(-c3cnccn3)c2CCN1C(=O)c1cccc(C(F)(F)F)c1Cl` (stereo not shown) [Example 73, 5-{[2-Chloro-3-(trifluoromethyl)phenyl]carbonyl}-4-methyl-1-pyrazin-2-yl-4,5,6,7-tetrahydro-1H-[1,2,3]triazolo[4,5-c]pyridine]: the “PBMC 1 μM (% control)” value stood at 4.3 % control.

As to `O=C(c1cccc(C(F)(F)F)c1Cl)N1C=Cc2c(nnn2-c2cnccn2)C1c1ccccc1` (stereo not shown) [Example 76, 5-{[2-Chloro-3-(trifluoromethyl)phenyl]carbonyl}-4-phenyl-1-pyrazin-2-yl-4,5-dihydro-1H-[1,2,3]triazolo[4,5-c]pyridine], the “PBMC 1 μM (% control)” value is on record as 1.6 % control.

In the case of `O=C(c1cccc(C(F)(F)F)c1Cl)N1C=Cc2c(nnn2-c2cnccn2)C1` [Example 89, 5-{[2-Chloro-3-(trifluoromethyl)phenyl]carbonyl}-1-pyrazin-2-yl-4,5-dihydro-1H-[1,2,3]triazolo[4,5-c]pyridine], the “PBMC 1 μM (% control)” value was −1.5 % control.

In the case of `O=C(c1cccc(C(F)(F)F)c1Cl)N1CCc2c(nnn2-c2cnccn2)C1` [Example 91, 5-{[2-Chloro-3-(trifluoromethyl)phenyl]carbonyl}-1-pyrazin-2-yl-4,5,6,7-tetrahydro-1H-[1,2,3]triazolo[4,5-c]pyridine], the “PBMC 1 μM (% control)” value is reported as 6.1 % control.

As to `Cn1nc2c(c1-c1ccccn1)CCN(C(=O)c1cccc(C(F)(F)F)c1Cl)C2` [Example 92, 6-{[2-Chloro-3-(trifluoromethyl)phenyl]carbonyl}-2-methyl-3-pyridin-2-yl-4,5,6,7-tetrahydro-2H-pyrazolo[3,4-c]pyridine], the “PBMC 1 μM (% control)” value came out at 2.7 % control.

Regarding `O=C(c1cccc(C(F)(F)F)c1Cl)N1CCc2c(-c3ccccn3)n[nH]c2C1` [Example 93, 6-{[2-Chloro-3-(trifluoromethyl)phenyl]carbonyl}-3-pyridin-2-yl-4,5,6,7-tetrahydro-2H-pyrazolo[3,4-c]pyridine-TFA salt], the “PBMC 1 μM (% control)” value was found to be 9.0 % control.

With `O=C(c1cccc(C(F)(F)F)c1Cl)N1CCc2c(-c3ccccc3)n[nH]c2C1` [Example 99, (2-Chloro-3-(trifluoromethyl)phenyl)(3-phenyl-4,5-dihydro-1H-pyrazolo[3,4-c]pyridin-6(7H)-yl)methanone], the “PBMC 1 μM (% control)” value was determined as 7.0 % control.

For `O=C(c1cccc(Cl)c1Cl)N1CCc2c(-c3ccccc3)n[nH]c2C1` [Example 100, 6-[(2,3-Dichlorophenyl)carbonyl]-3-phenyl-4,5,6,7-tetrahydro-1H-pyrazolo[3,4-c]pyridine], the “PBMC 1 μM (% control)” value is listed as 9.2 % control.

`Cn1nc(-c2ccccc2)c2c1CN(C(=O)c1cccc(Cl)c1Cl)CC2.Cn1nc2c(c1-c1ccccc1)CCN(C(=O)c1cccc(Cl)c1Cl)C2` [Example 101, 6-[(2,3-Dichlorophenyl)carbonyl]-1-methyl-3-phenyl-4,5,6,7-tetrahydro-1H-pyrazolo[3,4-c]pyridine-6-[(2,3-dichlorophenyl)carbonyl]-2-methyl-3-phenyl-4,5,6,7-tetrahydro-2H-pyrazolo[3,4-c]pyridine (1:1)]: the “PBMC 1 μM (% control)” value is 7.6 % control.

Take `Cn1nc2c(c1-c1ccccc1)CCN(C(=O)c1cccc(Cl)c1Cl)C2` [Example 102, 6-[(2,3-Dichlorophenyl)carbonyl]-2-methyl-3-phenyl-4,5,6,7-tetrahydro-2H-pyrazolo[3,4-c]pyridine]: the “PBMC 1 μM (% control)” value stood at 18.0 % control.

Still in this experiment, the particulars now being: human PBMCs, test compound 10 μM.
For the compound `CC1c2ncn(-c3ccc(F)cc3)c2CCN1C(=O)c1cccc(C(F)(F)F)c1F` (stereo not shown) [Example 20, (2-Fluoro-3-(trifluoromethyl)phenyl)(1-(4-fluorophenyl)-4-methyl-6,7-dihydro-1H-imidazo[4,5-c]pyridin-5(4H)-yl)methanone], the “PBMC 10 μM (% control)” value was determined as 8.6 % control.

As for `Cc1nc2c(n1-c1ccccc1)CCN(C(=O)c1cccc(C(F)(F)F)c1Cl)C2` [Example 37, (2-Chloro-3-(trifluoromethyl)phenyl)(2-methyl-1-phenyl-6,7-dihydro-1H-imidazo[4,5-c]pyridin-5(4H)-yl)methanone], the “PBMC 10 μM (% control)” value is reported as −9.1 % control.

For the compound `O=C(c1cccc(C(F)(F)F)c1Cl)N1CCc2c(nc(C(F)(F)F)n2-c2ccccc2)C1` [Example 38, (2-Chloro-3-(trifluoromethyl)phenyl)(1-phenyl-2-(trifluoromethyl)-6,7-dihydro-1H-imidazo[4,5-c]pyridin-5(4H)-yl)methanone], the “PBMC 10 μM (% control)” value was −0.3 % control.

With `O=C(c1cccc(Cl)c1Cl)N1CCc2c(nc(C(F)(F)F)n2-c2ccccc2)C1` [Example 58, 5-[(2,3-Dichlorophenyl)carbonyl]-1-phenyl-2-(trifluoromethyl)-4,5,6,7-tetrahydro-1H-imidazo[4,5-c]pyridine], the “PBMC 10 μM (% control)” value was −2.0 % control.

For the compound `O=C(c1cccc(Cl)c1Cl)N1CCc2c(ncn2-c2ccn[nH]2)C1` [Example 60, 5-[(2,3-Dichlorophenyl)carbonyl]-1-(1H-pyrazol-5-yl)-4,5,6,7-tetrahydro-1H-imidazo[4,5-c]pyridine], the “PBMC 10 μM (% control)” value was determined as 8.4 % control.

Take `O=C(c1cccc(C(F)(F)F)c1Cl)N1CCc2c(nnn2-c2ncccn2)C1` [Example 65, 5-{[2-Chloro-3-(trifluoromethyl)phenyl]carbonyl}-1-pyrimidin-2-yl-4,5,6,7-tetrahydro-1H-[1,2,3]triazolo[4,5-c]pyridine]: the “PBMC 10 μM (% control)” value turned out to be 5.8 % control.

Turning to `O=C(c1cccc(C(F)(F)F)c1F)N1CCc2c(nnn2-c2cnccn2)C1` [Example 69, 5-{[2-Fluoro-3-(trifluoromethyl)phenyl]carbonyl}-1-pyrazin-2-yl-4,5,6,7-tetrahydro-1H-[1,2,3]triazolo[4,5-c]pyridine], the “PBMC 10 μM (% control)” value worked out at 6.8 % control.

Regarding `CC1c2nnn(-c3ncccn3)c2CCN1C(=O)c1cccc(C(F)(F)F)c1Cl` (stereo not shown) [Example 80, 5-{[2-Chloro-3-(trifluoromethyl)phenyl]carbonyl}-4-methyl-1-pyrimidin-2-yl-4,5,6,7-tetrahydro-1H-[1,2,3]triazolo[4,5-c]pyridine], the “PBMC 10 μM (% control)” value is on record as 4.6 % control.

For the compound `CC1c2nnn(-c3ccc(F)cc3)c2C=CN1C(=O)c1cccc(C(F)(F)F)c1Cl` (stereo not shown) [Example 81, 5-{[2-Chloro-3-(trifluoromethyl)phenyl]carbonyl}-1-(4-fluorophenyl)-4-methyl-4,5-dihydro-1H-[1,2,3]triazolo[4,5-c]pyridine], the “PBMC 10 μM (% control)” value is given as 5.9 % control.

Regarding `CC1c2nnn(-c3ncccc3F)c2C=CN1C(=O)c1cccc(C(F)(F)F)c1Cl` (stereo not shown) [Example 82, 5-{[2-Chloro-3-(trifluoromethyl)phenyl]carbonyl}-1-(3-fluoropyridin-2-yl)-4-methyl-4,5-dihydro-1H-[1,2,3]triazolo[4,5-c]pyridine], the “PBMC 10 μM (% control)” value came to 7.9 % control.

Take `CC1c2nnn(-c3ccc(F)cc3)c2CCN1C(=O)c1cccc(C(F)(F)F)c1Cl` (stereo not shown) [Example 83, 5-{[2-Chloro-3-(trifluoromethyl)phenyl]carbonyl}-1-(4-fluorophenyl)-4-methyl-4,5,6,7-tetrahydro-1H-[1,2,3]triazolo[4,5-c]pyridine]: the “PBMC 10 μM (% control)” value is 4.5 % control.

For `CC1c2nnn(-c3ncccc3F)c2CCN1C(=O)c1cccc(C(F)(F)F)c1Cl` (stereo not shown) [Example 84, 5-{[2-Chloro-3-(trifluoromethyl)phenyl]carbonyl}-1-(3-fluoropyridin-2-yl)-4-methyl-4,5,6,7-tetrahydro-1H-[1,2,3]triazolo[4,5-c]pyridine], the “PBMC 10 μM (% control)” value was 8.5 % control.

In the case of `CC1c2nnn(-c3cc[nH]n3)c2C=CN1C(=O)c1cccc(C(F)(F)F)c1Cl` (stereo not shown) [Example 86, 5-{[2-Chloro-3-(trifluoromethyl)phenyl]carbonyl}-4-methyl-1-(1H-pyrazol-3-yl)-4,5-dihydro-1H-[1,2,3]triazolo[4,5-c]pyridine], the “PBMC 10 μM (% control)” value came to 13.0 % control.

As for `O=C(c1cccc(C(F)(F)F)c1Cl)N1CCc2c(-c3cccnc3)n[nH]c2C1` [Example 96, 6-{[2-Chloro-3-(trifluoromethyl)phenyl]carbonyl}-3-pyridin-3-yl-4,5,6,7-tetrahydro-2H-pyrazolo[3,4-c]pyridine], the “PBMC 10 μM (% control)” value turned out to be 3.6 % control.

Still in this experiment, the particulars now being: test compound 1 μM, LPS 30 ng/ml + 0.5 mM Bz-ATP.
With `Cn1nc(-c2ccccc2)c2c1CN(C(=O)c1cccc(Cl)c1Cl)CC2.Cn1nc2c(c1-c1ccccc1)CCN(C(=O)c1cccc(Cl)c1Cl)C2` [Example 101, 6-[(2,3-Dichlorophenyl)carbonyl]-1-methyl-3-phenyl-4,5,6,7-tetrahydro-1H-pyrazolo[3,4-c]pyridine-6-[(2,3-dichlorophenyl)carbonyl]-2-methyl-3-phenyl-4,5,6,7-tetrahydro-2H-pyrazolo[3,4-c]pyridine (1:1)], the “PBMC 1 μM (% control)” value was 7.6 % control.
